Consider 1 compound from publication PMC12723204, “Mitochondrial Dysfunction Induced by a Novel Salicylate‐Based 1,2,3‐Triazole Salt With Potent Antileishmanial Activity” (Chemical Biology & Drug Design, 2025).

Data set [1] deals with L. amazonensis intracellular amastigotes. As to the kind of experiment: Activity against intracellular amastigote forms of L. amazonensis in peritoneal macrophages (Giemsa counting). Type of data set: cell-based, Leishmania amazonensis. The protocol: Peritoneal macrophages were obtained from BALB/c mice previously inoculated with 3% thioglycollate medium (da Trindade Granato et al. [2018]). The macrophages (2 × 10^6 cells/mL) were then allowed to adhere in 24‐well culture plates for 16 h at 37°C in a 5% CO2 atmosphere. After rinsing with phosphate‐buffered saline (PBS), the adhered macrophages were infected with stationary‐phase promastigotes of L. amazonensis at a 10:1 parasite‐to‐macrophage ratio for 4 h at 33°C. After several washes to remove non‐adherent promastigotes, the cells were either left untreated (negative control) or treated with the compounds (3.125–100.000 μM). Following a 72 h treatment period, the infected macrophages were fixed in ethanol, stained with Giemsa, and 200 macrophages were counted to determine the number of intracellular amastigotes. The GraFit software was used to determine the IC50, which was the outcome of three separate trials conducted in duplicate.

The subject of data set [2] is peritoneal murine macrophages. As to the kind of experiment: Cytotoxicity against mammalian cells (MTT). Format: cell-based, BALB/c mice. The settings on record: comparator from Meinel et al. [2020]. The protocol: (§1) After being prepared as previously mentioned, murine peritoneal macrophages obtained from BALB/c mice were either left untreated (negative control) or treated with the compounds (3.125–100.000 μM). Using a spectrophotometer (Multiskan EX, Thermo Electron Corporation, Vantaa, Finland) set to 570 nm, cell viability was assessed after 72 h of treatment using the MTT method (Mosmann [1983]). A cytotoxic concentration for 50% of the cell population (CC50) was used to express the results. The reference medication was miltefosine (Cayman Chemical Company, Ann Arbor, MI, USA). The assays were performed in three independent experiments in duplicate. The selectivity index was calculated by […].

Data set [3] can be described thus: Cytotoxicity against mammalian cells (MTT). Format: cell-based, BALB/c mice. The settings on record: BALB/c, mouse; peritoneal murine macrophages, 72 h, MTT. The protocol:
as §1

Data set [4] relates to L. amazonensis promastigotes. The data set is described as follows: Mitochondrial membrane potential (JC-1). As to conditions: for mitochondrial membrane hyperpolarization: 24 h. Type of data set: cell-based, Leishmania amazonensis. The protocol:
To evaluate mitochondrial membrane potential (MMP), L. amazonensis promastigotes (5 × 10^6 cells) were exposed to compound 7 (1.25 μM and 2.50 μM) for 6 and 24 h. After incubation, the cells were washed with PBS and stained with 5.00 μM JC‐1 (Coimbra et al. [2019]). After a 40‐min incubation with JC‐1, the cells were washed with Hank's solution, and fluorescence was measured using a fluorimeter (FLx800, BioTek Instruments Inc., Winooski, VT, USA) at excitation/emission wavelengths of 485/528 nm and 540/600 nm to detect fluorescence from monomers and J‐aggregates, respectively. As a positive control, cells were treated with 10.00 μM FCCP (Sigma‐Aldrich, St. Louis, MO, USA). MMP was assessed by calculating the ratio of fluorescence emitted by J‐aggregates to that of monomers.

The subject of data set [5] is L. amazonensis promastigotes. As to the kind of experiment: Cell membrane integrity (propidium iodide). Format: cell-based, Leishmania amazonensis. As to conditions: 24 h, 1.25 and 2.50 μM. How it is done:
To evaluate cell membrane integrity, L. amazonensis promastigotes (5 × 10^6 cells) were treated with compound 7 (1.25 and 2.50 μM) for 24 h. After incubation, the cells were washed with PBS and stained with 0.20 μg/mL of propidium iodide (PI) (Sigma‐Aldrich, St. Louis, MO, USA) (da Trindade Granato et al. [2018]). Following a 15‐min incubation with PI, fluorescence was measured using a fluorimeter (FLx800) at an excitation/emission wavelength of 540/600 nm. Cells exposed to heat at 65°C for 10 min were used as a positive control.

For data set [6], the system named is L. amazonensis promastigotes. As to the kind of experiment: Activity against promastigotes of L. amazonensis (MTT). Format: cell-based. The settings on record: Leishmania amazonensis, 72 h, read-out: Promastigote IC50. How it is done: Promastigotes of L. amazonensis (IFLA/BR/67/PH8) were cultivated in brain heart infusion ([…] José dos […], Brazil) supplemented with bovine hemin (Sigma-Aldrich, St. Louis, MO, USA), folic acid (Sigma-Aldrich, St. Louis, MO, USA), inactivated fetal bovine serum (Cultilab, São Paulo, Brazil), and penicillin/streptomycin solution (Sigma-Aldrich, St. Louis, MO, USA). The cells were kept at 25°C in a BOD incubator. […] Louis, MO, USA; Mosmann [1983]). The viability of parasites was measured using a spectrophotometer (Multiskan EX-Thermo Electron Corporation, Vantaa, Finland) at 570 nm. The values were expressed as an inhibitory concentration capable of inhibiting 50% (IC50) of cell growth by using GraFit 5 software (Erithacus Software Ltda). […] Paulo, SP, Brazil) were used as reference drugs. All assays were run in triplicate across three separate trials.

The subject of data set [7] is L. amazonensis promastigotes. As to the kind of experiment: Mitochondrial superoxide (MitoSOX Red). Format: cell-based, Leishmania amazonensis. The settings on record: for increase in mitochondrial superoxide: 6 h. How it is done:
(§2) To measure ROS and mitochondrial ROS (superoxide) levels, L. amazonensis promastigotes (5 × 10^6 cells) were exposed to compound 7 (1.25 and 2.50 μM) for 6 and 24 h, following the methodology described by da Trindade Granato et al. ([2018]). Before the incubation, cells were washed with PBS and stained with 1 mM H2DCFDA (Invitrogen, Waltham, MA, USA) to measure total ROS. Fluorescence was measured after a 30‐min incubation with the dye using a fluorimeter (FLx800, BioTek Instruments Inc., Winooski, VT, USA) at an excitation/emission wavelength of 485/528 nm. As a positive control, cells were treated with 62.5 μM H2O2. To quantify mitochondrial superoxide, the MitoSOX Red indicator (Invitrogen, Molecular Probes, Eugene, Oregon, USA) was employed. Leishmania amazonensis promastigotes were treated with compound 7 (1.25 and 2.50 μM) for 6 and 24 h at 25°C. Cells were labeled with MitoSOX Red indicator at 5 μM and incubated for 20 min. Promastigotes incubated with antimycin A (10 μM) were used as the positive control. Fluorescence intensity was evaluated in a spectrofluorometer (FLx800, BioTek Instruments Inc., Winooski, VT, USA) at 540/600 nm of excitation/emission, respectively.

The subject of data set [8] is L. amazonensis promastigotes. As to the kind of experiment: Total ROS production (H2DCFDA). Format: cell-based, Leishmania amazonensis. How it is done: as §2
The nature of data set [9]: Cytotoxicity in human red blood cells (hemolytic assay). Type of data set: cell-based. As to conditions: human erythrocytes (1% suspension), 200.00 μM (maximum concentration tested). The protocol: (§3) Blood cells were centrifuged at 1500 rpm, the plasma and leukocytes were discarded, and the erythrocytes were washed in PBS. Then, the cells were diluted to a concentration of 1%, plated in 96‐well plates, and untreated or treated with the compound 7 at different concentrations (0.09–200.00 μM). The plate was incubated for 24 h at 37°C, and then centrifuged at 2000 rpm for 1 min. The supernatant was collected, and the absorbance (Abs) was determined in a spectrophotometer (Multiskan EX, Thermo Electron Corporation, Vantaa, Finland) at 540 nm. Untreated cells were considered the negative control. For the positive control, 0.2% saponin in deionized water was used.

Data set [10] relates to human erythrocytes. The description is as above. Type of data set: cell-based. As to conditions: 24 h, 0.09–200.00 μM. How it is done:
as §3

What is called IC50 is the midpoint of a concentration-inhibition curve. In general, CC50 refers to the concentration giving 50% cytotoxicity. Lower therefore signals greater toxicity to the cells.

Structures are written as SMILES. “Also recorded” adds a separate entry of the source.

As for `CCCCCCCCn1cc(COC(=O)c2ccccc2O)[n+](C)n1.[I-]` [Compound 7, 1‐Octyl‐4‐(((2‐Hydroxybenzoyl)oxy)methyl)‐3‐Methyl‐1H‐1,2,3‐Triazol‐3‐Ium Iodide], the “SI (Selectivity Index)” value in data set [1] (CC50 of peritoneal murine macrophages/IC50 L. amazonensis amastigotes) is listed as 17.81. Moreover, the IC50 in data set [1] (Leishmania amazonensis, Peritoneal macrophage, intracellular amastigotes in murine peritoneal macrophages, 72 h) was found to be 6.23 ± 0.35 µM; in data set [6], 1.26 ± 0.27 µM. The “fold lower cytotoxicity compared to the 4-hydroxy-substituted precursor previously described” value in data set [2] worked out at 3.8 fold. This compound showed a CC50 at 72 h in [3] of 111 ± 34.5 µM. Also, the “mitochondrial membrane potential (in words)” value in data set [4] (6 h, 1.25 and 2.50 μM) was “no change; also recorded: without alterations”. The figures for the mitochondrial membrane hyperpolarization in [4] (2× IC50 value (2.50 μM)) and in data set [4] (IC50 value (1.25 μM)) were 29.66% and 22.00%, respectively. The “membrane integrity, PI staining (in words)” value in data set [5] was “unaffected; also recorded: no significant alterations”. In addition, the “increase in mitochondrial superoxide” value in [7] (2× IC50 value (2.50 μM)) worked out at 62.54%; in data set [7] (IC50 value (1.25 μM)), 57.68%. The “mitochondrial superoxide levels (in words)” value in data set [7] (24 h, 1.25 and 2.50 μM) was “no alteration”. In addition, the “increase in total ROS” value in data set [8] (6 h, 2× IC50 value (2.50 μM)) came to 56.54%; in data set [8] (6 h, IC50 value (1.25 μM)) it was 62.81%; in [8] (24 h, 2× IC50 value (2.50 μM)), 77.03%; in [8] (24 h, IC50 value (1.25 μM)) it was 79.87%. The hemolysis at 24 h, 200 µM in [9] came out at 3.82%. In addition, in data set [10], the “hemolytic effect (in words)” value is “no hemolytic effect”.
